# Data: patent publication US12428415B2, “Matriptase 2 inhibitors and uses thereof” (Disc Medicine, Inc., priority 2018, dated 2025)
# Molecular target: T1, Human Recombinant Matriptase 2 (Homo sapiens, UniProt Q8IU80)
# T1 construct: purchased Enzo Life Sciences (an in-house preparation was also used) ALX-201-752-1
# T1 sequence (Q8IU80 1-811): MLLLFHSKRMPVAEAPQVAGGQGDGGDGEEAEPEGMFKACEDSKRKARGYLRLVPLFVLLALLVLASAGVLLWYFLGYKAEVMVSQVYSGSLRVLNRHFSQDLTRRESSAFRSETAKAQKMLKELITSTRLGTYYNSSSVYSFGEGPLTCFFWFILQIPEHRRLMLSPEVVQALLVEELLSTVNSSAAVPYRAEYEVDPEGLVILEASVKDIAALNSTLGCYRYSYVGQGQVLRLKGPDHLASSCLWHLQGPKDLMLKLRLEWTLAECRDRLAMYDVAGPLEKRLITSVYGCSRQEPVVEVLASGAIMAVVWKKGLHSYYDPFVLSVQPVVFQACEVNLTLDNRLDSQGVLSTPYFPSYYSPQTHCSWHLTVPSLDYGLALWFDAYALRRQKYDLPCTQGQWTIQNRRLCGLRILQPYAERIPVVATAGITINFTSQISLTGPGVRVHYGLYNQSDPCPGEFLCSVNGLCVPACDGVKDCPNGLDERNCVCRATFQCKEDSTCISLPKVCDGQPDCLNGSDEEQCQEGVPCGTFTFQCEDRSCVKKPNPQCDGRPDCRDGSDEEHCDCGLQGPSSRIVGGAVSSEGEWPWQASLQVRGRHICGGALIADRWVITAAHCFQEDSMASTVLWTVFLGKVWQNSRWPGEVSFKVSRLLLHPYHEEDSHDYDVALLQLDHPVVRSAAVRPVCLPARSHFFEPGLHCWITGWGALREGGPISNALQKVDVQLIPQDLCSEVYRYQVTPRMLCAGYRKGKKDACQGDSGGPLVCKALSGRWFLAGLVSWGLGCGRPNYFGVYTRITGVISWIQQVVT
# Assay: Matriptase 2 fluorescence based inhibition assay, Method A (100 mM TRIS pH 9, 1 mg/mL BSA)
# Type: biochemical
# Conditions: 1 uM; Assay Used A; read-out: Mar-2 % inhibition at 1 uM
# Summary of the method: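 At 25° C in 100 mM TRIS pH 9 with 1 mg/mL BSA and 1% DMSO, compounds were preincubated 30 min with 7 nM commercial or 15 nM in-house protein before adding 100 μM Boc-Gln-Ala-Arg-7-amido-4-methyl coumarin. Fluorescence at 360/480 nm after 60 min; single points at 1 and 10 μM, IC50 by variable-slope nonlinear regression.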
row,inhibition at 1 µM [%],SMILES
1,0 to 25,N=C(N)c1ccc2cc(C(=O)N[C@H](CO)c3ccccc3)n(Cc3ccc(C(N)=O)cc3)c2c1 [Compound I-86]
2,25 to 50,CC[C@@H](NC(=O)c1cc2ccc(C(=N)N)cc2n1Cc1ccc(C(N)=O)cc1)c1ccccc1 [Compound I-96]
3,0 to 25,N=C(N)c1ccc2cc(C(=O)Nc3ccc(F)c(N4CCCC4)c3)n(Cc3ccc(C(N)=O)cc3)c2c1 [Compound I-155]
4,0 to 25,N=C(N)c1ccc2cc(C(=O)Nc3ccc(C(F)(F)F)cc3)n(CCS(=O)(=O)c3ccccc3)c2c1 [Compound I-43]
5,0 to 25,C[C@H](NC(=O)c1cc2ccc(C(=N)N)cc2n1Cc1ccc(C(N)=O)cc1)c1ccc(F)cc1 [Compound I-63]
6,0 to 25,N=C(N)c1ccc2cc(C(=O)Nc3cccc(N4CC[C@H](F)C4)c3)n(Cc3ccc(C(N)=O)cc3)c2c1 [Compound I-122]
7,0 to 25,N=C(N)c1ccc2cc(C(=O)NCCC3CCCCC3)n(Cc3ccc(C(N)=O)cc3)c2c1 [Compound I-195]
8,25 to 50,Cc1cncc(NC(=O)c2cc3ccc(C(=N)N)cc3n2Cc2ccc(C(N)=O)cc2)c1 [Compound I-175]
9,25 to 50,N=C(N)c1ccc2cc(C(=O)N[C@H]3CC[C@H](N)CC3)n(Cc3ccncc3)c2c1 [Compound I-19]
10,25 to 50,N=C(N)c1ccc2cc(C(=O)NCc3ccncc3)n(Cc3ccc(C(N)=O)cc3)c2c1 [Compound I-168]
11,0 to 25,N=C(N)c1ccc2cc(C(=O)Nc3cccc(F)c3)n(CCS(=O)(=O)c3ccccc3)c2c1 [Compound I-41]
12,0 to 25,C[C@H](NC(=O)c1cc2ccc(C(=N)N)cc2n1Cc1ccc(C(N)=O)cc1)c1ccc(Cl)c(Cl)c1 [Compound I-107]
13,0 to 25,N=C(N)c1ccc2cc(C(=O)Nc3cc(F)ccc3F)n(Cc3ccc(C(N)=O)cc3)c2c1 [Compound I-115]
14,0 to 25,N=C(N)c1ccc2cc(C(=O)Nc3ccc(N4CCCC4)c(F)c3)n(Cc3ccc(C(N)=O)cc3)c2c1 [Compound I-104]
15,25 to 50,N=C(N)c1ccc2cc(C(=O)N[C@H]3CC[C@H](N)CC3)n(CCCc3ccccc3)c2c1 [Compound I-34]
16,0 to 25,N=C(N)c1ccc2cc(C(=O)Nc3ccc(F)c(F)c3)n(Cc3ccc(C(N)=O)cc3)c2c1 [Compound I-87]
17,0 to 25,N=C(N)c1ccc2cc(C(=O)Nc3cccc(-c4ccccn4)c3)n(Cc3ccc(C(N)=O)cc3)c2c1 [Compound I-134]
18,25 to 50,N=C(N)c1ccc2cc(C(=O)NCC3CCCCC3)n(Cc3ccc(C(F)(F)F)cc3)c2c1 [Compound I-10]
19,0 to 25,N=C(N)c1ccc2cc(C(=O)NCc3cc(F)cc(F)c3)n(Cc3ccc(C(N)=O)cc3)c2c1 [Compound I-80]
20,25 to 50,N=C(N)c1ccc2cc(C(=O)Nc3cccc(-n4cccn4)c3)n(Cc3ccc(C(N)=O)cc3)c2c1 [Compound I-132]
21,25 to 50,CC(C)(O)[C@@H](NC(=O)c1cc2ccc(C(=N)N)cc2n1Cc1ccc(C(N)=O)cc1)c1ccccc1 [Compound I-125]
22,0 to 25,N=C(N)c1ccc2cc(C(=O)Nc3cc(F)ccn3)n(Cc3ccc(C(N)=O)cc3)c2c1 [Compound I-169]

# Same assay, conditions: at 1 uM; Assay Used = A; read-out: Mar-2 % inhibition at 1 uM
row,inhibition at 1 µM [%],SMILES
1,25 to 50,N=C(N)c1ccc2c(Cl)c(C(=O)N[C@H]3CC[C@H](N)CC3)n(Cc3ccc(Oc4ccccc4)cc3)c2c1 [Compound I-251]
2,0 to 25,N=C(N)c1ccc2cc(C(=O)N3CCC(C(F)(F)F)CC3)n(Cc3ccc(C(N)=O)cc3)c2c1 [Compound I-329]
3,0 to 25,N=C(N)c1ccc2cc(C(=O)N3CCC(F)(F)CC3)n(Cc3ccc(NC(=O)CCN)cc3)c2c1 [Compound I-374]
4,0 to 25,"N=C(N)c1ccc2c(O)c(C(=O)NCC3CCCCC3)n(Cc3ccc(C(N)=O)cc3)c2c1 [Compound I-212, 6-Carbamimidoyl-1-(4-carbamoylbenzyl)-N-(cyclohexylmethyl)-3-hydroxy-1H-indole-2-carboxamide]"
5,0 to 25,"N=C(N)c1ccc2cc(C(=O)NCC3CCCCC3)n(Cc3ccc(C(N)=O)cc3F)c2c1 [Compound I-227, 6-Carbamimidoyl-1-(2-Fluoro-4-carbamoyl-benzyl)-N-(cyclohexylmethyl)-1H-indole-2-carboxamide]"
6,0 to 25,N=C(N)c1ccc2cc(C(=O)N3CC[C@H](F)C3)n(Cc3ccc(C(N)=O)cc3)c2c1 [Compound I-330]
7,0 to 25,CC(C)CCn1c(C(=O)N2CCC(F)(F)CC2)cc2ccc(C(=N)N)cc21 [Compound I-271]
8,0 to 25,N=C(N)c1ccc2cc(C(=O)N3CCC(CF)CC3)n(Cc3ccc(-c4ccccc4)cc3)c2c1 [Compound I-308]
9,25 to 50,N=C(N)c1ccc2cc(C(=O)N3CCC(CCN)CC3)n(Cc3ccc(Oc4cccc(C(F)(F)F)c4)cc3)c2c1 [Compound I-319]
10,0 to 25,"N=C(N)c1ccc2cc(C(=O)NCC3CCCCC3)n(Cc3ccc(C(=O)NC4CC4)cc3)c2c1 [Compound I-217, 6-Carbamimidoyl-N-(cyclohexylmethyl)-1-(4-(cyclopropylcarbamoyl)benzyl)-1H-indole-2-carboxamide]"
11,0 to 25,NCCC(=O)Nc1cccc(Cn2c(C(=O)N3CCC(CCN)CC3)cc3ccc(/C(N)=N/O)cc32)c1 [Compound I-381]
12,0 to 25,CC(C)c1ccc(Cn2c(C(=O)N3CCC(F)(F)CC3)cc3ccc(C(=N)N)cc32)cc1 [Compound I-296]
13,0 to 25,N=C(N)c1ccc2cc(C(=O)N[C@]34CC5CC(C[C@@](O)(C5)C3)C4)n(Cc3ccc(C(N)=O)cc3)c2c1 [Compound I-198]
14,0 to 25,N=C(N)c1ccc2cc(C(=O)N3CC[C@H](F)C3)n(Cc3ccc(NC(=O)CCN)cc3)c2c1 [Compound I-375]
15,50 to 75,N=C(N)c1ccc2cc(C(=O)N[C@H]3CC[C@H](N)CC3)n(Cc3ccc(Oc4ccc(Cl)cc4)cc3)c2c1 [Compound I-247]
16,25 to 50,"N=C(N)c1ccc2cc(C(=O)N[C@H]3CC[C@H](NC(=O)CCN)CC3)n(Cc3ccc(Oc4ccccc4)cc3)c2c1 [Compound I-242, N-((1r,4r)-4-(3-Aminopropanamido)cyclohexyl)-6-carbamimidoyl-1-(4-phenoxybenzyl)-1H-indole-2-carboxamide]"
17,25 to 50,N=C(N)c1ccc2cc(C(=O)NC34CC5CC(CC(C5)C3)C4)n(Cc3ccc(Oc4ccc(F)cc4)cc3)c2c1 [Compound I-245]
18,0 to 25,NCCCC(=O)Nc1cccc(Cn2c(C(=O)N3CCC(CCN)CC3)cc3ccc(/C(N)=N/O)cc32)c1 [Compound I-382]
19,25 to 50,NCCCC(=O)Nc1ccc(Cn2c(C(=O)N3CCC(CCN)CC3)cc3ccc(/C(N)=N/O)cc32)cc1 [Compound I-384]
20,0 to 25,N=C(N)c1ccc2cc(C(=O)N3CCc4ccccc4C3)n(Cc3cccc(NC(=O)CCN)c3)c2c1 [Compound I-365]
21,0 to 25,CC[C@@H](CO)NC(=O)c1cc2ccc(C(=N)N)cc2n1Cc1ccc(C(N)=O)cc1 [Compound I-209]
22,0 to 25,CC(C)c1ccc(Cn2c(C(=O)N3CCC(CF)CC3)cc3ccc(C(=N)N)cc32)cc1 [Compound I-297]
23,0 to 25,"CCNC(=O)c1ccc(Cn2c(C(=O)N3CCC(F)(F)C3)cc3ccc(C(=N)N)cc32)cc1 [Compound I-385, 4-((6-Carbamimidoyl-2-(3,3-difluoropyrrolidine-1-carbonyl)-1H-indol-1-yl)methyl)-N-ethylbenzamide]"
24,25 to 50,N=C(N)c1ccc2cc(C(=O)N3CCC(CCN)CC3)n(CCc3ccccc3)c2c1 [Compound I-299]
25,0 to 25,N=C(N)c1ccc2cc(C(=O)N3CCC(F)(F)CC3)n(CCS(=O)(=O)c3ccccc3)c2c1 [Compound I-344]
26,0 to 25,N=C(N)c1ccc2cc(C(=O)N3CCC(F)CC3)n(Cc3ccc(C(F)(F)F)cc3)c2c1 [Compound I-282]
27,0 to 25,N=C(N)c1ccc2cc(C(=O)N3CCC(F)(F)C3)n(Cc3ccc(-c4ccccc4)cc3)c2c1 [Compound I-310]
28,25 to 50,CC(C)(C)c1ccc(Cn2c(C(=O)N3CC[C@H](F)C3)cc3ccc(C(=N)N)cc32)cc1 [Compound I-298]
29,0 to 25,N=C(N)c1ccc2cc(C(=O)N3CCC(F)(F)C3)n(Cc3ccc(Oc4ccccc4)cc3)c2c1 [Compound I-314]
30,25 to 50,N=C(N)c1ccc2c(Br)c(C(=O)N[C@H]3CC[C@H](N)CC3)n(Cc3ccc(Oc4ccccc4)cc3)c2c1 [Compound I-250]
